The values below come from patent US20060002888A1, “Polyionenes for treating infections associated with cystic fibrosis” (Genzyme Corporation, priority 2002, published 2006).

In brackets after ≈: the same amount, converted by molar mass. Where two headings read alike, the source gives them in different places. Bounds are passed on as bounds.

Assay [1] has as its system P. aeruginosa. As to conditions: within 11 passages, published studies; cited from earlier work.
For assay [2], the system named is A-549 lung epithelial cells. The experiment in a line: IC50 in A-549 lung epithelial cells. It counts as cell-based. As to conditions: Homo sapiens, A549. How it is done:
(§1) Poly(trimethylene dipyridine-alt-5-oxanonane) having a molecular weight of 0.5 to 1 kDa was tested in A-549 lung epithelial cells to determine its IC50 value in comparison with tobramycin, a conventional antibiotic. In addition, the minimum inhibitory concentrations for the two compounds were determined in vitro for a number of bacterial strains and species. The results are as shown below, where all concentrations are expressed as μg/mL: […]

The subject of assay [3] is B. cepacia. The assay can be described thus: Minimum inhibitory concentration in vitro (Example 26). The assay is classed as cell-based. As to conditions: Burkholderia cepacia. How it is done: as §1
Assay [4] relates to P. aeruginosa. The assay is described as above. It counts as cell-based. As to conditions: Pseudomonas aeruginosa. How it is done: as §1
Assay [5] relates to S. aureus. The description is as above. It counts as cell-based. Particulars: Staphylococcus aureus. How it is done: as §1
The test system of assay [6] is S. maltophilia. The description is as above. The assay is classed as cell-based. As to conditions: Stenotrophomonas maltophilia. How it is done:
as §1

Assay [7] has as its system MRSA. As to conditions: over 15 passages, published studies; cited from earlier work.

With gentamicin, in assay [1], the “Rise of the MIC” value was 190 fold.
Take `NC[C@H]1O[C@H](O[C@H]2[C@H](O)[C@@H](O[C@H]3O[C@H](CO)[C@@H](O)[C@H](N)[C@H]3O)[C@H](N)C[C@@H]2N)[C@H](N)C[C@@H]1O` [Tobramycin]: the 50% inhibitory concentration (IC50) (in general, the concentration that gives 50% inhibition) in assay [2] came to 5000 mg/L (≈ 10700 µM). For the same compound, the MIC – broadly, the lowest concentration found to suppress growth – was over 50 mg/L in assay [3]; 0.39 mg/L (≈ 0.834 µM) in assay [4] (strain G38, read-out: MIC P. aeruginosa G38); 0.39 mg/L (≈ 0.834 µM) in assay [4] (strain PA01, read-out: MIC P. aeruginosa PA01); 0.195 mg/L (≈ 0.417 µM) in assay [5]; 25 mg/L (≈ 53.5 µM) in assay [6].
As to `CCn1cc(C(=O)O)c(=O)c2cc(F)c(N3CCNCC3)cc21` [norfloxacin], the “Rise of the MIC” value is reported as 10 fold in assay [1] and 85 fold in assay [7].
